Patent US20240197761A1, “FUCOSYLATION AND IMMUNE MODULATION IN CANCER” (H. LEE MOFFITT CANCER CENTER AND RESEARCH INSTITUTE, INC., priority 2021, published 2024)

System: SM1 tumors
Assay: Anti-PD-1 mouse model, SM1: tumor growth and flow cytometric profiling of tumors and draining lymph nodes (Table 2)
Assay type: in vivo, C57BL/6 mice
Source text: FIGS. 21A and 21B Administration of combination L-fucose and anti-PD-1 suppresses tumors and increases intra-tumoral CD4+T central and effector memory cells (a) Volumetric growth curves for SW1 tumors in C3H/HeN mice (left) and SM1 tumors in C57BL/6 mice (right) fed L-fucose (LF) and treated with PBS (control) or anti-PD-1. (concurrent initiation of LF anti-PD1 (▾)). The tumor growth curves are means±SEM from ≥7 mice per group. (b) Volumetric growth curves for SM1 tumors in C57BL/6 mice fed ±L-fucose (LF) and treated with PBS (control) or anti-PD-1 (PD-1). (concurrent initiation of LF±PD1 (▾)). The tumor growth curves are means±SEM from ≥7 mice per group. *=p<0.05. At Day 7 (prior to administration of LF or PD1), Day 21 (endpoint for tumors of control-treated mice), Day 31 (endpoint for tumors of LF-treated mice), Day 63 (endpoint for tumors of PD1-treated mice), the primary tumors (Tumor) and draining lymph nodes (LN) of 4-5 mice per treatment group were analyzed by flow cytometry for intratumor levels of CD4+ and CD8+T subpopulations (naive/terminal, stem central/central/effector memory) and dendritic cell (DC) subpopulations (cDC1, cDC2, and monocyte-derived DC (moDC)) as in FIG. 15. Proportions of CD4+, CD8+, and DC subpopulations in each organ at each timepoints are represented by the color-coded pie charts (each pie chart represents 4-5 mice). Absolute numbers of the subpopulations per […] of tumor/tissue homogenate at each timepoint are represented in the color-coded column charts.
Tumors of SW1 or SM1 melanoma cells from […] or C57BL/6 mice, respectively) were digested using 1× tumor digest buffer (0.5 mg/mL Collagenase I, 0.5 mg/mL Collagenase IV, 0.25 mg/mL Hyalyronidase V, 0.1 mg/mL DNAse I in HBSS (Millipore Sigma (St. Louis, MO)). Tumors were homogenized using the Miltenyi MACs dissociator. Red blood cells were lysed using ACK lysis buffer (Life Technologies, (Grand Island, NY)). Tumor homogenate cells were counted using a standard hemocytometer.
Total TILs were gated first to single cells (based on forward scatter height vs width, followed by side scatter height vs. width). Live cells were gated from the Zombie negative population from the population above. TILs were gated based on splenocyte size from a control spleen. Individual immune subpopulations were sub-gated from the total TIL population using the following staining criteria: CD3+ for CD3+ T cells; CD3+/CD4+/CD8− for CD4+T cells; CD3+/CD4−/CD8+ for CD8+ T cells, CD11c+/CD11b+ for DCs; either NK1.1 (for C57/BL6 mice) or DX5 (for C3H/HeJ) for NK cells; CD11b+/GR1+ for MDSC-like cells; and F4/80+ for macrophages. Single-cell suspensions from tumor and spleen tissue were stained with Live/Dead Zombie NIR (Biolegend, (San Diego, CA)) at 1:1,000 in PBS for 20 min. Cell suspensions were spun down and stained with the following with antibodies at 0.5 μg/ml per antibody: APC anti-mouse CD3, Pacific Blue anti-mouse CD4, BV785 anti-mouse CD8, PerCP anti-mouse CD25, FITC anti-mouse F4/80, PeCy7 anti-mouse CD11c, PE anti-mouse NK1.1 or PE anti-mouse DX5, and PerCP-Cy5.5 anti-mouse CD11 b. After staining, the cells were washed and fixed (2% formaldehyde), followed by another wash and flow cytometric analysis. The compensation controls were prepared using 0.5 μg/mL of each antibody with UltraComp eBeads, (ThermoFisher Scientific (Waltham, MA)). All samples were subject to flow cytometric profiling using a LSR Flow Cytometer (BD Biosciences (San Jose, CA)) and analysis as indicated using FlowJo software (BD Biosciences (San Jose, CA)).
SW1 or SM1 mouse melanoma cells were injected into syngeneic C3H/HeN female or C57BL/6 male mice, respectively. After approximately 7 days, when the mice tumors reached −150 mm^3, the mice were either supplemented with or without 100 mM L-fucose (Biosynth (Oak Terrace, IL)) via drinking water, which was provided ad libitum. […]

In the case of C[C@H](O)[C@@H](O)[C@@H](O)[C@H](O)C=O [L-fucose], the “CD4 central memory, average # of cells” value (Day 21, lymph nodes) is reported as 592.12 per 10^6 cells of total tumor, the “CD4 effector memory, average # of cells” value (Day 21, lymph nodes) is reported as 1155.12 per 10^6 cells of total tumor and the “CD4 naïve, average # of cells” value (Day 21, lymph nodes) is reported as 24832.36 per 10^6 cells of total tumor. For the same molecule, the “CD4 stem central memory, average # of cells” value (from here on “CD4 stem central memory”) (Day 21, lymph nodes) was 512.17 per 10^6 cells of total tumor, the “CD8 central memory, average # of cells” value (Day 21, lymph nodes) was 1017.54 per 10^6 cells of total tumor and the “CD8 effector memory, average # of cells” value (Day 21, lymph nodes) was 4093.80 per 10^6 cells of total tumor. For the same molecule, the “CD8 naïve, average # of cells” value (Day 21, lymph nodes) was 11896.39 per 10^6 cells of total tumor, the “CD8 stem central memory, average # of cells” value (shortened to “CD8 stem central memory”) (Day 21, lymph nodes) was 192.89 per 10^6 cells of total tumor and the “cDC1, average # of cells” value (Day 21, lymph nodes) was 9395.57 per 10^6 cells of total tumor. For the same molecule, the “cDC2, average # of cells” value (Day 21, lymph nodes) was 13997.11 per 10^6 cells of total tumor, the “moDC, average # of cells” value (Day 21, lymph nodes) was 1788.45 per 10^6 cells of total tumor and the “CD4+ CRTAM+, average # of cells” value (Day 21, tumors) was 361.60 per 10^6 cells of total tumor. The “CD4 central memory, average # of cells” value (Day 21, tumors) was 19.50 per 10^6 cells of total tumor, the “CD4 effector memory, average # of cells” value (Day 21, tumors) was 302.98 per 10^6 cells of total tumor and the “CD4 naïve, average # of cells” value (Day 21, tumors) was 186.42 per 10^6 cells of total tumor. For the same molecule, the “CD4 stem central memory” value (Day 21, tumors) was 3.22 per 10^6 cells of total tumor, the “CD8+ GRZB+, average # of cells” value (Day 21, tumors) was 14146.30 per 10^6 cells of total tumor and the “CD8 central memory, average # of cells” value (Day 21, tumors) was 25.37 per 10^6 cells of total tumor. For the same molecule, the “CD8 effector memory, average # of cells” value (Day 21, tumors) was 889.74 per 10^6 cells of total tumor, the “CD8 naïve, average # of cells” value (Day 21, tumors) was 81.09 per 10^6 cells of total tumor and the “CD8 stem central memory” value (Day 21, tumors) was 1.53 per 10^6 cells of total tumor. The “cDC1, average # of cells” value (Day 21, tumors) was 2032.24 per 10^6 cells of total tumor, the “cDC2, average # of cells” value (Day 21, tumors) was 12762.45 per 10^6 cells of total tumor and the “moDC, average # of cells” value (Day 21, tumors) was 570.99 per 10^6 cells of total tumor. For the same molecule, the “CD4 central memory, average # of cells” value (Day 31, lymph nodes) was 424.67 per 10^6 cells of total tumor, the “CD4 effector memory, average # of cells” value (Day 31, lymph nodes) was 6638.79 per 10^6 cells of total tumor and the “CD4 naïve, average # of cells” value (Day 31, lymph nodes) was 30715.03 per 10^6 cells of total tumor. The “CD4 stem central memory” value (Day 31, lymph nodes) was 408.72 per 10^6 cells of total tumor, the “CD8 central memory, average # of cells” value (Day 31, lymph nodes) was 286.54 per 10^6 cells of total tumor and the “CD8 effector memory, average # of cells” value (Day 31, lymph nodes) was 2478.29 per 10^6 cells of total tumor. For the same molecule, the “CD8 naïve, average # of cells” value (Day 31, lymph nodes) was 12415.41 per 10^6 cells of total tumor, the “CD8 stem central memory” value (Day 31, lymph nodes) was 56.84 per 10^6 cells of total tumor and the “cDC1, average # of cells” value (Day 31, lymph nodes) was 5781.73 per 10^6 cells of total tumor. The “cDC2, average # of cells” value (Day 31, lymph nodes) was 22628.85 per 10^6 cells of total tumor, the “moDC, average # of cells” value (Day 31, lymph nodes) was 7315.56 per 10^6 cells of total tumor and the “CD4+ CRTAM+, average # of cells” value (Day 31, tumors) was 112.92 per 10^6 cells of total tumor. The “CD4 central memory, average # of cells” value (Day 31, tumors) was 28.68 per 10^6 cells of total tumor, the “CD4 effector memory, average # of cells” value (Day 31, tumors) was 297.82 per 10^6 cells of total tumor and the “CD4 naïve, average # of cells” value (Day 31, tumors) was 401.23 per 10^6 cells of total tumor. The “CD4 stem central memory” value (Day 31, tumors) was 6.29 per 10^6 cells of total tumor, the “CD8+ GRZB+, average # of cells” value (Day 31, tumors) was 5679.05 per 10^6 cells of total tumor and the “CD8 central memory, average # of cells” value (Day 31, tumors) was 26.40 per 10^6 cells of total tumor. The “CD8 effector memory, average # of cells” value (Day 31, tumors) was 202.98 per 10^6 cells of total tumor, the “CD8 naïve, average # of cells” value (Day 31, tumors) was 223.96 per 10^6 cells of total tumor and the “CD8 stem central memory” value (Day 31, tumors) was 3.15 per 10^6 cells of total tumor. For the same molecule, the “cDC1, average # of cells” value (Day 31, tumors) was 200.82 per 10^6 cells of total tumor, the “cDC2, average # of cells” value (Day 31, tumors) was 5753.01 per 10^6 cells of total tumor and the “moDC, average # of cells” value (Day 31, tumors) was 1107.62 per 10^6 cells of total tumor. The “intratumoral CD4+T central and effector memory cells” value (L-fuc alone (FIG. 21b)) was “increased”, the “tumor suppression in combination with anti-PD1” value (SM1 model) was “augmented durable suppression” and the “tumor suppression, single agent” value (SM1 model (FIG. 21a right)) was “less tumor suppressive than anti-PD1 alone”.
